Data from US20020193425A1, “Cancer chemopreventative compounds and compositions and methods of treating cancers” (priority 2001, published 2002).
In brackets after ≈: the same amount, converted by molar mass.

What was measured:
[1] = Cytotoxicity, viability by Trypan blue exclusion; details: human, RS4;11 cells, Cytotoxicity (IC50, ng/ml), four days
Description: (§6) All cell lines were maintained in suspension culture using RPMI 1640 medium supplemented with 10% heat-inactivated fetal bovine serum, 100 units of penicillin/ml and 100 μg of streptomycin/ml at 37° C. in a humidified atmosphere of 5% CO2 in air.
(§7) Cellular viability was monitored by Trypan blue exclusion.
(§8) ^aViability was determined by Trypan blue exclusion in duplicate samples. […] Results are expressed as median inhibitory cell concentrations of two independent experiments (±standard deviations).

RS4;11 = experiment: Cytotoxicity, viability by Trypan blue exclusion; details: four days
Description: as §6, §7, §8

JB6 cells = details: dose-dependent manner; cited from earlier work
HL-60 cells = experiment: Membrane phenotype, cell surface antigen by flow cytometry; type: cell-based, human; details: Brusatol 25 ng/ml, 4-day protocol
Description: (§1) Cell lines were tested using a 4-day incubation protocol, unless otherwise specified.
(§2) 3) Determination of cell surface antigen by flow cytometry. Cells (10^6) were washed with PBS and then incubated for 30 min at room temperature with respective monoclonal antibodies, washed with 20 volumes of diluent (PBS with 0.1% sodium azide and 1% BSA), and resuspended in 0.5 ml of fresh diluent for evaluation. Necrotic cells were excluded from the analysis by propidium iodide (PI) staining. The following mAbs (Sigma, St. Louis, Mo.) were used to assess the maturation level of myeloid cell lines: antiCD15 (Leu M1), antiCD-11b (OKM1), antiCD14 and antiCD13. The following mAbs (Sigma, St. Louis, Mo.) were used to assess the maturation level of lymphocytic cell lines: antiCD20, antiHLA-DR and antikappa light chain.
Cells were induced to differentiate with the indicated concentrations of brusatol using a 4-day protocol and then analyzed for membrane markers of differentiation as described under “Materials and methods”. Results are expressed as the specific mean fluorescence intensity (ratio of antigen antibody flourescence over isotype antibody fluorescence), and represents the mean of two independent studies.

SUPB13 = experiment: Cytotoxicity, viability by Trypan blue exclusion; details: four days
Description: as §6, §7, §8

[2] = Cytotoxicity, viability by Trypan blue exclusion; details: human, SUPB13 cells, Cytotoxicity (IC50, ng/ml), four days
Description: as §6, §7, §8

[3] = Cytotoxicity, viability by Trypan blue exclusion; details: human, K562 cells
Description: (§9) HL-60, K562, U937, Reh and Daudi cells were obtained from the American Type Culture Collection (Rockville, Md.). Kasumi-1, NB4, BV173, SUPB13, and RS4;11 cells were provided by the Section of Hematology/Oncology, University of Illinois College of Medicine, Chicago, Ill. All cell lines were maintained in suspension culture using RPMI 1640 medium supplemented with 10% heat-inactivated fetal bovine serum, 100 units of penicillin/ml and 100 μg of streptomycin/ml at 37° C. in a humidified atmosphere of 5% CO2 in air. All cells were routinely tested for mycoplasma contamination.
Cellular viability was monitored by Trypan blue exclusion. Inhibition of [3H]thymidine incorporation into DNA was determined to assess the level of cell proliferation as well as DNA synthesis inhibition. Cells were treated with test samples for four days and then placed into 96-well plates (100 μl) and treated with [3H]thymidine (0.5 μCi/ml, 65 Ci/mmol) for 18 h at 37° C. in a 5% CO2 incubator. Cells then were collected on glass fiber filters using a TOMTEC Harvester 96®. The filters were counted using a Microbeta™ liquid scintillation counter (Wallac, Turku, Finland) with scintillation fluid. Finally, the percentage of [3H]thymidine incorporation per 10^6 cells was calculated by dividing the dpm of sample-treated cells by the dpm of DMSO-treated cells.
as §8

Kasumi-1 = experiment: NSE expression (monocyte marker); type: cell-based; details: 4 days
Description: as §1
(§3) 2) NBT/NSE/SE. Evaluation of NBT reduction was used to assess the ability of sample-treated cells to produce superoxide when challenged with TPA. A 1:1 (v/v) mixture of a cell suspension (10^6 cells) and TPA/NBT solution (2 mg/ml NBT and 1 μg/ml TPA in phosphate buffer saline (PBS)) was incubated for 1 h at 37° C. Then, cells were smeared on glass slides, and counterstained with 0.3% (w/v) safranin O in methanol. Positive cells reduce NBT yielding intracellular black-blue formazan deposits. NSE/SE are monocytic/granulocytic esterases that can be visualized by cytochemical staining using commercially available kits (α-Naphthyl Acetate Esterase and Naphthol As-D Chloroacetate Esterase kits, Sigma Chemical Co., St. Louis, Mo.). Positive-stained cells were quantified by microscopic examination of >200 cells. Results were expressed as a percentage of positive cells.
(§4) Concentration-dependent effect of brusatol on: (a) NBT-reduction (monocyte/granulocyte marker) of HL-60, K562, NB4, U937, and BV173 and (b) NSE expression (monocyte marker) in K562, Kasumi-1, NB4, and BV173 cells, respectively. Data points are the mean of duplicate samples.

BV173 [4] = experiment: NSE expression (monocyte marker); type: cell-based; details: 4 days
Description: as §1, §3, §4

K562 = experiment: NSE expression (monocyte marker); type: cell-based; details: 4 days
Description: as §1, §3, §4

NB4 = experiment: NSE expression (monocyte marker); type: cell-based; details: 4 days
Description: as §1, §3, §4

[5] = Cytotoxicity, viability by Trypan blue exclusion; details: human, Reh cells, Cytotoxicity (IC50, ng/ml), four days
Description: as §6, §7, §8

Reh = experiment: Cytotoxicity, viability by Trypan blue exclusion; details: four days
Description: as §6, §7, §8

DHL-6 cells = experiment: Membrane markers of B-lymphocyte maturation by flow cytometry; type: cell-based; details: brusatol (5 ng/ml), control 197.5
Description: as §1, §2
(§5) Finally, various membrane markers of B-lymphocyte maturation (i.e., CD20, superficial light chain kappa and HLA-DR) in SUPB13, RS4;11, Reh, Daudi and DHL-6 were analyzed. Few changes were observed, but brusatol induced a small increase in CD20 with DHL-6 cells (197.5 control vs. 225.3 brusatol (5 ng/ml), specific mean fluorescence intensity), and a larger increase of HLA-DR in Daudi cells (92.5 control vs. 244.9 brusatol (10 ng/ml), specific mean fluorescence intensity).

Daudi cells = experiment: as above; type: cell-based; details: brusatol (10 ng/ml), control 92.5
Description: as §1, §2, §5

BV173 [6] = experiment: Cytotoxicity, viability by Trypan blue exclusion; details: four days
Description: as §9
Cellular viability was monitored by Trypan blue exclusion. Inhibition of [3H]thymidine incorporation into DNA was determined to assess the level of cell proliferation as well as DNA synthesis inhibition. […] The filters were counted using a Microbeta™ liquid scintillation counter (Wallac, Turku, Finland) with scintillation fluid. Finally, the percentage of [3H]thymidine incorporation per 10^6 cells was calculated by dividing the dpm of sample-treated cells by the dpm of DMSO-treated cells.
as §8

in vitro = details: human
Description: Human blood (20 ml) was collected in heparinized sterile tubes and white blood cells were separated using Ficoll reagent (8 ml/5 ml blood diluted in 15 ml Hank's buffered solution). After centrifugation at low speed (1500 rpm) for 30 min, the white coat was removed and washed 3-times with Hank's buffered solution. The cell pellet was resuspended in RPMI 1640 medium supplemented with 10% FBS. This preparation contained >90% lymphocytes and <5% monocytes, as determined by Wright-Giemsa staining.
as §7, §8

[7] = tested on: patients with various types of solid tumors; details: phase I clinical trials; cited from earlier work
[8] = tested on: metastatic breast cancer and malignant melanoma; details: phase II trials, adult patients with metastatic breast cancer and malignant melanoma; cited from earlier work
[9] = human beings; single intravenous injection of 3 mg/m^2; cited from earlier work

Structure (SMILES): COC(=O)[C@@]12OC[C@]34[C@H]([C@@H](O)[C@@H]1O)[C@@]1(C)CC(=O)C(O)=C(C)[C@@H]1C[C@H]3OC(=O)[C@H](OC(=O)C=C(C)C)[C@@H]24 [compound 1, brusatol]
- IC50 at 4 days [1]: < 0.025 µg/mL
- Cytotoxicity (IC50, ng/ml) (RS4;11): 25 ± 2 ng/mL
- TPA-induced anchorage-independent growth of JB6 cells (JB6 cells): inhibits
- CD11b, specific mean fluorescence intensity (HL-60 cells): 2.2 ± 0.5
- CD13, specific mean fluorescence intensity (HL-60 cells): 266.1 ± 55.7
- CD14, specific mean fluorescence intensity (HL-60 cells): 1.0
- CD15, specific mean fluorescence intensity (HL-60 cells): 177.1 ± 8.7
- Cytotoxicity (IC50, ng/ml) (SUPB13): 20 ± 1.2 ng/mL
- IC50 at 4 days [2]: < 0.025 µg/mL
- IC50 at 4 days [3]: > 0.1 µg/mL
- viability at 4 days, 100 ng/ml [3]: ~90%
- upregulated expression of NSE (Kasumi-1): approximately 50%
- upregulated expression of NSE (BV173 [4]): approximately 35%
- upregulated expression of NSE (K562): approximately 50%
- upregulated expression of NSE (NB4): approximately 50%
- IC50 at 4 days [5]: 0.05 to 0.1 µg/mL (≈ 0.0961 to 0.192 µM)
- Cytotoxicity (IC50, ng/ml) (Reh): 100 ± 5.4 ng/mL
- CD20, specific mean fluorescence intensity (DHL-6 cells): 225.3
- HLA-DR, specific mean fluorescence intensity (Daudi cells): 244.9
- Cytotoxicity (IC50, ng/ml) (BV173 [6]; listed as Brusatol): 5 ± 1.4 ng/mL
- Cytotoxicity (IC50, ng/ml) (BV173 [6]; listed as brusatol): less than 25 ng/ml

Structure (SMILES): COC(=O)[C@@]12OC[C@]34[C@H]([C@@H](O)[C@@H]1O)[C@@]1(C)CC(=O)C(O)=C(C)[C@@H]1C[C@H]3OC(=O)[C@H](OC(=O)/C=C(\C)C(C)C)[C@@H]24 [compound 2, bruceantin]
- IC50 at 3 days (in vitro): > 0.05 µg/mL
- hematologic toxicity [7]: moderate to insignificant
- objective tumor regressions [8]: No objective tumor regressions were observed
- blood level [9]: 22 ng/mL
